As a reminder, the mortality is the percentage killed.

Holding throughout (assay type): in vivo
For data set [1], the system named is Green Peach Aphid (Myzus persicae). The data set is described as follows: Bioassay on Green Peach Aphid (GPA), foliar spray on cabbage seedlings. As to conditions: 72 h, 200 ppm foliar spray on cabbage seedlings, three days, Abbott corrected % control, read-out: GPA % Control (or Mortality) rating. On the procedure: Certain molecules disclosed in this document were tested against GPA using procedures described in the following example. In the reporting of the results, the “GPA & YFM Rating Table” was used (See Table Section).
Cabbage seedlings grown in 3-inch pots, with 2-3 small (3-5 cm) true leaves, were used as test substrate. The seedlings were infested with 20-50 GPA (wingless adult and nymph stages) one day prior to chemical application. Four pots with individual seedlings were used for each treatment. Test molecules (2 mg) were dissolved in 2 mL of acetone/methanol (1:1) solvent, forming stock solutions of 1000 ppm test molecule. The stock solutions were diluted 5× with 0.025% Tween 20 in water to obtain the solution at 200 ppm test molecule. A hand-held aspirator-type sprayer was used for spraying a solution to both sides of […] leaves until runoff. Reference plants (solvent check) were sprayed with the diluent only containing 20% by volume of acetone/methanol (1:1) solvent. Treated plants were held in a holding room for three days at approximately 25° C. and ambient relative humidity (RH) prior to grading. Evaluation was conducted by counting the number of live aphids per plant under a microscope. Percent control was measured using Abbott's correction formula (W. S. Abbott, “A Method of Computing the Effectiveness of an Insecticide” J. Econ. Entomol. 18 (1925), pp. 265-267) as follows. Corrected % Control=100*(X−Y)/X where X=No. of live aphids on solvent check plants and Y=No. of live aphids on treated plants. The results are indicated in the table entitled “Table ABC: Biological Results” (See Table Section).

Data set [2] deals with Cabbage Looper (Trichoplusia ni). The data set is described as follows: Bioassay on Cabbage Looper (CL), 128-well diet tray assay. As to conditions: 168 h, 50 μg/cm^2 on artificial diet, second instar larvae, five to seven days, read-out: CL % Control (or Mortality) rating. The procedure, abridged:
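Activity is mean percent mortality over eight wells of second-instar larvae exposed to diet treated at 50 μg/cm^2 for 5–7 days at 25° C.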

For data set [3], the system named is Beet Armyworm (Spodoptera exigua). Description: Bioassay on Beet Armyworm (BAW), 128-well diet tray assay. The following applies: for mortality at 50 µg/cm2: Spodoptera exigua, 168 h, 50 μg/cm^2 on artificial diet, second instar larvae, five to seven days, read-out: BAW % Control (or Mortality) rating.
Data set [4] relates to Yellow Fever Mosquito (Aedes aegypti). The following applies: about 1 day-old larvae, 3 days, scored on mortality.

Regarding `O=C(NNc1ncccn1)c1ccc(/C(F)=C/C(c2cc(Cl)c(F)c(Cl)c2)C(F)(F)F)cc1C(F)(F)F` (centres unmarked) [F4, (Z)-4-(3-(3,5-Dichloro-4-fluorophenyl)-1,4,4,4-tetrafluorobut-1-en-1-yl)-N′-(pyrimidin-2-yl)-2-(trifluoromethyl)benzohydraziderazide], the mortality at 200 ppm in data set [1] fell in the range of 0 to 80%. In addition, the mortality at 50 µg/cm2 in data set [2] and in data set [3] was 50 to 100% each time.
Turning to `O=C(Nn1ccnc1)c1ccc(/C(F)=C/C(c2cc(Cl)c(Cl)c(Cl)c2)C(F)(F)F)cc1C(F)(F)F` (centres unmarked) [F10, (Z)—N-(1H-Imidazol-1-yl)-4-(1,4,4,4-tetrafluoro-3-(3,4,5-trichlorophenyl)but-1-en-1-yl)-2-(trifluoromethyl)benzamide], in data set [1], the mortality at 200 ppm lay in the range of 0 to 80%. The mortality at 50 µg/cm2 in data set [2] and in data set [3] was 50 to 100% each time.
For `O=C(NNc1ncc(Cl)cn1)c1ccc(/C(F)=C/C(c2cc(Cl)c(Cl)c(Cl)c2)C(F)(F)F)cc1C(F)(F)F` (centres unmarked) [F63, (Z)—N′-(5-Chloropyrimidin-2-yl)-4-(1,4,4,4-tetrafluoro-3-(3,4,5-trichlorophenyl)but-1-en-1-yl)-2-(trifluoromethyl)benzohydrazide], in data set [4], the “YFM % Control (or Mortality) rating” value is listed as “A (80-100)”. In addition, the mortality at 200 ppm in data set [1] was in the range of 0 to 80%. The mortality at 50 µg/cm2 in data set [2] and in data set [3] was 50 to 100% throughout.
`CN(NC(=O)c1ccc(/C(F)=C/C(c2cc(Cl)c(Cl)c(Cl)c2)C(F)(F)F)cc1C(F)(F)F)c1ncccn1` (centres unmarked) [F71, (Z)—N′-Methyl-N′-(pyrimidin-2-yl)-4-(1,4,4,4-tetrafluoro-3-(3,4,5-trichlorophenyl)but-1-en-1-yl)-2-(trifluoromethyl)benzohydrazide]: in data set [1], the mortality at 200 ppm fell in the range of 80 to 100%. Further, the mortality at 50 µg/cm2 in data set [2] and in data set [3] was 50 to 100% in each case.
As to `O=C(NNc1ncccn1)c1ccc(/C(F)=C/C(c2cc(Cl)c(Cl)c(Cl)c2)C(F)(F)F)cc1C(F)(F)F` (centres unmarked) [F97, (Z)—N′-(pyrimidin-2-yl)-4-(1,4,4,4-tetrafluoro-3-(3,4,5-trichlorophenyl)but-1-en-1-yl)-2-(trifluoromethyl)benzohydrazide], the mortality at 200 ppm in data set [1] fell in the range of 80 to 100%. Moreover, the mortality at 50 µg/cm2 in data set [2] and in data set [3] was 50 to 100% each time. Besides, the “BAW (Table CD-1)” value in data set [3] (0.05 μg/cm^2), in data set [3] (5.0 μg/cm^2) and in data set [3] (50 μg/cm^2) was 100 throughout.
Consider `O=C(NNc1ncccn1)c1ccc(/C(F)=C/C(c2cc(Br)cc(Br)c2)C(F)(F)F)cc1C(F)(F)F` (centres unmarked) [F176, (Z)-4-(3-(3,5-Dibromophenyl)-1,4,4,4-tetrafluorobut-1-en-1-yl)-N′-(pyrimidin-2-yl)-2-(trifluoromethyl)benzohydrazide], for which the “YFM % Control (or Mortality) rating” value in data set [4] is listed as “A (80-100)”. Moreover, the mortality at 50 µg/cm2 in data set [2] and in data set [3] was 50 to 100% each time.
Regarding `C#CCN(C(=O)c1ccc(/C(F)=C/C(c2cc(Cl)c(Cl)c(Cl)c2)C(F)(F)F)cc1C(F)(F)F)N(C)c1ncccn1` (centres unmarked) [F180, (Z)—N′-Methyl-N-(prop-2-yn-1-yl)-N′-(pyrimidin-2-yl)-4-(1,4,4,4-tetrafluoro-3-(3,4,5-trichlorophenyl)but-1-en-1-yl)-2-(trifluoromethyl)benzohydrazide], in data set [4], the “YFM % Control (or Mortality) rating” value is reported as “A (80-100)”. Moreover, in data set [1], the mortality at 200 ppm fell in the range of 0 to 80%. In addition, the mortality at 50 µg/cm2 in data set [2] and in data set [3] was 50 to 100% each time.
As for `CNN(CC(=O)NCC(F)(F)F)C(=O)c1ccc(/C(F)=C/C(c2cc(Cl)c(Cl)c(Cl)c2)C(F)(F)F)cc1C(F)(F)F` (centres unmarked) [F183, (Z)-2-(2-Methyl-1-(4-(1,4,4,4-tetrafluoro-3-(3,4,5-trichlorophenyl)but-1-en-1-yl)-2-(trifluoromethyl)benzoyl)hydrazinyl)-N-(2,2,2-trifluoroethyl)acetamide], the “YFM % Control (or Mortality) rating” value in data set [4] was “A (80-100)”. Moreover, the mortality at 50 µg/cm2 in data set [2] and in data set [3] was 50 to 100% each time.
Regarding `CN(C)N(CC(=O)NCC(F)(F)F)C(=O)c1ccc(/C(F)=C/C(c2cc(Cl)c(Cl)c(Cl)c2)C(F)(F)F)cc1C(F)(F)F` (centres unmarked) [F184, (Z)-2-(2,2-dimethyl-1-(4-(1,4,4,4-tetrafluoro-3-(3,4,5-trichlorophenyl)but-1-en-1-yl)-2-(trifluoromethyl)benzoyl)hydrazinyl)-N-(2,2,2-trifluoroethyl)acetamide], the “YFM % Control (or Mortality) rating” value in data set [4] is “A (80-100)”. Also, the mortality at 50 µg/cm2 in data set [2] and in data set [3] was 50 to 100% throughout.

(Values after patent US10638756B2, “Molecules having pesticidal utility, and intermediates, compositions, and processes, related thereto” (Dow AgroSciences LLC, priority 2017, dated 2020).)
